Read-outs that look alike come from different tables or passages of the source. Marks after values point to notes of the source that are not given here.
How the values were obtained:
lambs = assay: Growth performance in lambs; type: in vivo; conditions: for Interim BW: after 20 days on test; for Final BW: after 43 days on test
Excerpt: The effects of diet supplementation with alpha-tocopherol and gamma-tocopherol on tissue oxidation and storage life of fresh meat from lambs fed a diet supplemented with tocopherol was studied. A total of 42 weaned Western white-faced lambs (4 ewes, 38 males) were used in a feeding trial. The lambs were housed two per pen in a slatted floor barn and initially fed chopped oat hay, then gradually acclimated to a beet pulp-based basal diet. The basal ration consisted of 82.2% beet pulp pellets, 9.5% chopped oat hay, 6.0% liquid molasses, 1.5% soybean meal, 0.8% mineralized salt, and monensin (30 g/ton). All lambs were given ad libitum access to the basal diet.
The basal diet was fed for 60 days and on days 61 and 62, lambs were weighed to calculate initial body weight. Lambs were blocked by weight, without regard to gender, and randomly assigned within weight blocks to pens, and pens were randomly assigned to dietary treatments (14 lambs/treatment).
Interim and final weights were taken on two consecutive days after 20 and 43 days on test, respectively, to calculate average daily weight gain (ADG) and feed conversion. On the 45th day on test, the lambs were transported to a commercial packing plant and slaughtered the following morning. Standard carcass data were collected.
The fourth column is standard error of measurement (SEM). The last two columns are P values for the statistical comparison of the alpha group versus the gamma group, and the control group versus the alpha and gamma groups.

[1] = Lamb loin antioxidant concentrations
[2] = male, sheep (lambs), in vivo
iron-loaded rats = conditions: ability to inhibit lipid peroxidation; cited from earlier work
in vivo = conditions: male, sheep (lambs)

| SMILES | Gain: feed (lambs; 1st 20 Days) [g/kg] | Intake (lambs; 1st 20 Days) [kg/day] | ADG (lambs; 1st 20 Days, 500 IU/kg/day) [g/day] | ADG (lambs; 2nd 23 Days) | Gain: feed (lambs; 2nd 23 Days) | Intake (lambs; 2nd 23 Days) [kg/day] | ADG (lambs; Overall) [g/day] | Gain: feed (lambs; Overall) | Intake (lambs; Overall) [kg/day] | Interim BW (lambs) [kg] | Final BW (lambs) [kg] | also measured |
| --- | --- | --- | --- | --- | --- | --- | --- | --- | --- | --- | --- | --- |
| Cc1c(C)c2c(c(C)c1O)CC[C@@](C)(CCC[C@H](C)CCC[C@H](C)CCCC(C)C)O2 [Alpha-tocopherol, alpha-tocopherol, reference compound] | 124.2 | 1.43 | 164.1 | 190.9^b g/d | 127.1^a g/kg | 1.54 | 182.3 | 126.0^a g/kg | 1.49 | 52.1 | 56.6 | ADG (lambs; 2nd 23 Days, listed as alpha-tocopherol): 190.9 g/day; Alpha-Tocopherol in loin ([1]; Day 1): 3.83^a μg/g; Gamma-Tocopherol in loin ([1]; Day 1): 0.30^b μg/g; Total antioxidant in loin ([1]; Day 1): 4.13^b μg/g; Alpha-Tocopherol in loin ([1]; Day 6): 6.22^a μg/g; Gamma-Tocopherol in loin ([1]; Day 6): 0.43^b μg/g; Total antioxidant in loin ([1]; Day 6): 6.70^b μg/g; Alpha-Tocopherol in loin ([1]; Overall): 5.04^a μg/g; Gamma-Tocopherol in loin ([1]; Overall): 0.37^b μg/g; Total antioxidant in loin ([1]; Overall): 5.41^b μg/g |
| Cc1c(O)cc2c(c1C)O[C@](C)(CCC[C@H](C)CCC[C@H](C)CCCC(C)C)CC2 [Gamma-tocopherol, gamma-tocopherol] | 132.6 | 1.35 | 173.5 | 264.0^a g/d | 187.2^b g/kg | 1.45 | 221.9 | 162.8^b g/kg | 1.40 | 53.0 | 59.1 | ADG (lambs; 2nd 23 Days, listed as gamma-tocopherol): 264.0 g/day; Alpha-Tocopherol in loin [2]: 3.22^b μg/g; Increase of tissue gamma-tocopherol level over control treatment [2]: over 35 times; Total antioxidant in loin [2]: 9.57^a μg/g; Alpha-Tocopherol in loin ([2]; 1 day): 3.47^a μg/g; Total antioxidant in loin ([2]; 1 day): 10.6^a μg/g; Alpha-Tocopherol in loin ([2]; 6 day): 2.87^b μg/g; Total antioxidant in loin ([2]; 6 day): 8.47^a μg/g; antioxidant efficacy relative to alpha-tocopherol on a per unit mass basis (iron-loaded rats): about one-third; concentration at 1 day (in vivo): 7180 ng/g; concentration at 6 day (in vivo): 5570 ng/g |

— patent publication US6977269B1, “Method of improving animal tissue quality” (Pioneer Hi-Bred International, Inc, priority 2001, dated 2005)
